Assay results: ChEMBL document CHEMBL4507259 (2021)
Calls of active or inactive are those of the source. No cut-off for these calls is given here.

Columns and labels:
[1] = test system: LNCaP-Clone-FGC; experiment: LnCaP-FGC Proliferation; type: functional, cell-based; settings: Homo sapiens
[2] = target: Sodium-dependent noradrenaline transporter (Homo sapiens) (UniProt P23975); experiment: norepinephrine transporter (h) CEREP ligand profiling; settings: filed as antagonist, Compound concentration 10.0 uM
[3] = target: Calcium-activated potassium channel (Homo sapiens) (UniProt Q92952+Q9UGI6+Q12791+O15554+Q9H2S1+A8MYU2); experiment: SKCa channel CEREP ligand profiling; type: protein assay; settings: filed as antagonist; Compound concentration 10.0 uM
[4] = test system: Tyrosine-protein kinase ABL1 (Homo sapiens), P00519 [M351T]; settings: Compound concentration 1000.0 nM
[5] = target: Tyrosine-protein kinase ABL2 (Homo sapiens) (UniProt P42684); settings: Compound concentration 1000.0 nM
[6] = target: Atypical kinase COQ8A, mitochondrial (Homo sapiens) (UniProt Q8NI60); settings: Compound concentration 1000.0 nM
[7] = target: Cyclin-dependent kinase-like 1 (Homo sapiens) (UniProt Q00532); settings: Compound concentration 1000.0 nM
[8] = target: Dual specificity protein kinase CLK1 (Homo sapiens) (UniProt P49759); settings: Compound concentration 1000.0 nM
[9] = target: Casein kinase II subunit alpha' (Homo sapiens) (UniProt P19784); settings: Compound concentration 1000.0 nM
[10] = test system: Epidermal growth factor receptor (Homo sapiens), P00533 [UNDEFINED MUTATION]; settings: Compound concentration 1000.0 nM
[11] = test system: Epidermal growth factor receptor (Homo sapiens), P00533 [T790M]; settings: Compound concentration 1000.0 nM
[12] = target: Ephrin type-A receptor 5 (Homo sapiens) (UniProt P54756); settings: Compound concentration 1000.0 nM
[13] = target: Ephrin type-B receptor 4 (Homo sapiens) (UniProt P54760); settings: Compound concentration 1000.0 nM
[14] = target: Receptor tyrosine-protein kinase erbB-2 (Homo sapiens) (UniProt P04626); settings: Compound concentration 1000.0 nM
[15] = target: Mitogen-activated protein kinase 1 (Homo sapiens) (UniProt P28482); settings: Compound concentration 1000.0 nM
[16] = test system: Receptor-type tyrosine-protein kinase FLT3 (Homo sapiens), P36888 [D835V]; settings: Compound concentration 1000.0 nM
[17] = target: Vascular endothelial growth factor receptor 3 (Homo sapiens) (UniProt P35916); settings: Compound concentration 1000.0 nM
[18] = target: Glycogen synthase kinase-3 alpha (Homo sapiens) (UniProt P49840); settings: Compound concentration 1000.0 nM
[19] = target: Mitogen-activated protein kinase 8 (Homo sapiens) (UniProt P45983); settings: Compound concentration 1000.0 nM
[20] = test system: Mast/stem cell growth factor receptor Kit (Homo sapiens), P10721 [D816H]; settings: Compound concentration 1000.0 nM
[21] = test system: Mast/stem cell growth factor receptor Kit (Homo sapiens), P10721 [L576P]; settings: Compound concentration 1000.0 nM
[22] = target: Mast/stem cell growth factor receptor Kit (Homo sapiens) (UniProt P10721); settings: Compound concentration 1000.0 nM
[23] = target: LIM domain kinase 1 (Homo sapiens) (UniProt P53667); settings: Compound concentration 1000.0 nM
[24] = target: Mitogen-activated protein kinase kinase kinase 15 (Homo sapiens) (UniProt Q6ZN16); settings: Compound concentration 1000.0 nM
[25] = target: Dual specificity mitogen-activated protein kinase kinase 3 (Homo sapiens) (UniProt P46734); settings: Compound concentration 1000.0 nM
[26] = test system: Hepatocyte growth factor receptor (Homo sapiens), P08581 [Y1235D]; settings: Compound concentration 1000.0 nM
[27] = target: Serine/threonine-protein kinase Nek5 (Homo sapiens) (UniProt Q6P3R8); settings: Compound concentration 1000.0 nM
[28] = target: Calcium-dependent protein kinase 1 (Plasmodium falciparum) (UniProt P62344); settings: Compound concentration 1000.0 nM
[29] = target: Phosphatidylinositol 4,5-bisphosphate 3-kinase catalytic subunit beta isoform (Homo sapiens) (UniProt P42338); settings: Compound concentration 1000.0 nM
[30] = target: cAMP-dependent protein kinase catalytic subunit alpha (Homo sapiens) (UniProt P17612); settings: Compound concentration 1000.0 nM
[31] = target: Protein kinase C eta type (Homo sapiens) (UniProt P24723); settings: Compound concentration 1000.0 nM
[32] = target: cAMP-dependent protein kinase catalytic subunit PRKX (Homo sapiens) (UniProt P51817); settings: Compound concentration 1000.0 nM
[33] = target: Ribosomal protein S6 kinase alpha-2 (Homo sapiens) (UniProt Q15349); settings: Compound concentration 1000.0 nM
[34] = target: Ribosomal protein S6 kinase alpha-2 (Homo sapiens) (UniProt Q15349); settings: Compound concentration 1000.0 nM; remark: listed apart in the source
[35] = target: Tyrosine-protein kinase SYK (Homo sapiens) (UniProt P43405); settings: Compound concentration 1000.0 nM
[36] = target: Non-receptor tyrosine-protein kinase TYK2 (Homo sapiens) (UniProt P29597); settings: Compound concentration 1000.0 nM
[37] = target: Serine/threonine-protein kinase 32C (Homo sapiens) (UniProt Q86UX6); settings: Compound concentration 1000.0 nM
[38] = target: T1, 5-hydroxytryptamine receptor 1A (Homo sapiens) (UniProt P08908); settings: Compound concentration 10.0 uM
T1 sequence (whole entry): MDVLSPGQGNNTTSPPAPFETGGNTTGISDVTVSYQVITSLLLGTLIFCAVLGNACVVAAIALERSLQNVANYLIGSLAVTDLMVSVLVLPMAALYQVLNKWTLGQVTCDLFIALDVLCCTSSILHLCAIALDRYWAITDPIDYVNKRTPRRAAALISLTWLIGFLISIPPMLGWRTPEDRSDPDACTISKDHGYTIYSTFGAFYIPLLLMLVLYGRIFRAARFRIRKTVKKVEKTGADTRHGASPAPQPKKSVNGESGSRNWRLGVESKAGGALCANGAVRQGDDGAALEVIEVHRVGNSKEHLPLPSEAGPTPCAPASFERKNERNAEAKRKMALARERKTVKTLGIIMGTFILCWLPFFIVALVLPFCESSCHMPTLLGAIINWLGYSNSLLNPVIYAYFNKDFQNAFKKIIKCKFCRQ

[39] = target: 5-hydroxytryptamine receptor 2A (Homo sapiens) (UniProt P28223); settings: Compound concentration 10.0 uM

Chain of Ribosomal protein S6 kinase alpha-2 (Homo sapiens) (Q15349 whole entry): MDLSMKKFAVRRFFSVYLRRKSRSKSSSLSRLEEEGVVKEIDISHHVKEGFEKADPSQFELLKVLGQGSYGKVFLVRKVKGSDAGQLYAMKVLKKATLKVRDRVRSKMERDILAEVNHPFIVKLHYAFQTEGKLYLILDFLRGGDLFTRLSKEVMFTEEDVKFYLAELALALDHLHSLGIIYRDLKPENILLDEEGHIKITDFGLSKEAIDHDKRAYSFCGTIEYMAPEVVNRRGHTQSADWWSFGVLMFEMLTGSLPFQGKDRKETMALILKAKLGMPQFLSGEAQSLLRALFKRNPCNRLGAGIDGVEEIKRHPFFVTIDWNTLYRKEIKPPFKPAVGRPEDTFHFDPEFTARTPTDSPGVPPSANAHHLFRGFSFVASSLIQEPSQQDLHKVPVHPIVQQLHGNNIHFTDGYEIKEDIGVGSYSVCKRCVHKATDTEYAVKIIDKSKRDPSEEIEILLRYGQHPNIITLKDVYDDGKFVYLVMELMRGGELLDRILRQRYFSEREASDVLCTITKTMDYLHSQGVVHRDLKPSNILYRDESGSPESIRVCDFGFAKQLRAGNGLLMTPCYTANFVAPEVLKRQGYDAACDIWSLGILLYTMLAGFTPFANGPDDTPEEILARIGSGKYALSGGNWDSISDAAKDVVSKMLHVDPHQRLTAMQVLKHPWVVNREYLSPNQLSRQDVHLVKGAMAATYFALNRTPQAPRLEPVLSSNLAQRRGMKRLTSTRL
Chain of Calcium-dependent protein kinase 1 (Plasmodium falciparum) (P62344 2-524 limits assumed): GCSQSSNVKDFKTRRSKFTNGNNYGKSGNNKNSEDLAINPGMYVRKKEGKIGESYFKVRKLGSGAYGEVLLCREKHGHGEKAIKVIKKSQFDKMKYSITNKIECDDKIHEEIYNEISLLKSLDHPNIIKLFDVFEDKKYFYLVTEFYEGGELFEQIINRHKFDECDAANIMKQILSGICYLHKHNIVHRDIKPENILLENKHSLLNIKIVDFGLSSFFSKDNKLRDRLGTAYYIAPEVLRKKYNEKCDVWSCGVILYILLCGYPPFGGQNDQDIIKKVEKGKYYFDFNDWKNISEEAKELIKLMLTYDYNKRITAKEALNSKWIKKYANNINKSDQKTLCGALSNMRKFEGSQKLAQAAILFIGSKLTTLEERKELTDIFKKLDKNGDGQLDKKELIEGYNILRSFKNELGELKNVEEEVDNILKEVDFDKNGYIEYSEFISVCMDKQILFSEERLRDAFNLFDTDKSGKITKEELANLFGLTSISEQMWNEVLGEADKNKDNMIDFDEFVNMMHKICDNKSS
Chain of Dual specificity protein kinase CLK1 (Homo sapiens) (P49759 whole entry, looked up): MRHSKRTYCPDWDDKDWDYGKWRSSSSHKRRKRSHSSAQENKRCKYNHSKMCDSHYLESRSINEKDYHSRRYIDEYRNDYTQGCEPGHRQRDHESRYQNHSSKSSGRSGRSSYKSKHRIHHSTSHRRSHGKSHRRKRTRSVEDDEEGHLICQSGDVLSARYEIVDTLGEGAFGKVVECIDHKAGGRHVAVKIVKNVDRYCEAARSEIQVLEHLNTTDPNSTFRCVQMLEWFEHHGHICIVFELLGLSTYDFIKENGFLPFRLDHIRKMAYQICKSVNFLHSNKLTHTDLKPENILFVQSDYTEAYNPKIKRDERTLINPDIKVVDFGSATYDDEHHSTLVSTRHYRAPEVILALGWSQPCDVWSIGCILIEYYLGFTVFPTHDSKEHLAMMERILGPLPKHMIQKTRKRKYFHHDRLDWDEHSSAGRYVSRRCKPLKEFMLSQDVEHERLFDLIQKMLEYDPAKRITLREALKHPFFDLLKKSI
Chain of cAMP-dependent protein kinase catalytic subunit PRKX (Homo sapiens) (P51817 whole entry): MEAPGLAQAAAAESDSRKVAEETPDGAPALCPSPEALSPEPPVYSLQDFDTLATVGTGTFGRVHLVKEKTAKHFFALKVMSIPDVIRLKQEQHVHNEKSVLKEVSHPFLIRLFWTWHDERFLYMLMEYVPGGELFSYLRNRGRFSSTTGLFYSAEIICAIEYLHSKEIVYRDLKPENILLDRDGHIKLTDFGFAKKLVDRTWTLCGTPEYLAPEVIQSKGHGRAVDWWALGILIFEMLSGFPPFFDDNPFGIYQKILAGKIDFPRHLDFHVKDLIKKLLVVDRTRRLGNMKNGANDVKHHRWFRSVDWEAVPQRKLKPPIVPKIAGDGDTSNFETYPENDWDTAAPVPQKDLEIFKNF
Chain of Atypical kinase COQ8A, mitochondrial (Homo sapiens) (Q8NI60 163-647 limits assumed): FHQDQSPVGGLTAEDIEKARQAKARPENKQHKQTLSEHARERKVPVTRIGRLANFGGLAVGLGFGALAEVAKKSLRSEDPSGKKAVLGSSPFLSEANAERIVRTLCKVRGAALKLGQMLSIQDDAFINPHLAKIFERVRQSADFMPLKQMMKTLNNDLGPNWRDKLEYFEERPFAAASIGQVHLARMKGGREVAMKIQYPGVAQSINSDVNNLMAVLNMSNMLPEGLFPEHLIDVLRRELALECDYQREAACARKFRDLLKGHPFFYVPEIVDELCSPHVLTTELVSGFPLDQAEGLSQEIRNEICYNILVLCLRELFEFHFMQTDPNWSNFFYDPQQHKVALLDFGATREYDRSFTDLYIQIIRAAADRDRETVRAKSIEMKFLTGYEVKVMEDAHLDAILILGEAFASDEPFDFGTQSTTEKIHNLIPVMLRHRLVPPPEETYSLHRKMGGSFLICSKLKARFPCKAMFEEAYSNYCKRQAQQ
Chain of Mitogen-activated protein kinase 1 (Homo sapiens) (P28482 whole entry): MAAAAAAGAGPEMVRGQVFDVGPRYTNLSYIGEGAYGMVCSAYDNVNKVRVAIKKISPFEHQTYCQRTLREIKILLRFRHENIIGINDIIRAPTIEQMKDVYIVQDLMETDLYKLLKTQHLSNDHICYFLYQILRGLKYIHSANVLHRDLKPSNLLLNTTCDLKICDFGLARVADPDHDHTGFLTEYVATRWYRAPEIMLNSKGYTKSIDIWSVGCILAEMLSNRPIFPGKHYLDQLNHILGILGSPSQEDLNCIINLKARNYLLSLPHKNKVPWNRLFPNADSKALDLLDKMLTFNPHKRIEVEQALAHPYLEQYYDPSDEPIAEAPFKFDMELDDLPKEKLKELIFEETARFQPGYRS
Chain of Ephrin type-B receptor 4 (Homo sapiens) (P54760 whole entry): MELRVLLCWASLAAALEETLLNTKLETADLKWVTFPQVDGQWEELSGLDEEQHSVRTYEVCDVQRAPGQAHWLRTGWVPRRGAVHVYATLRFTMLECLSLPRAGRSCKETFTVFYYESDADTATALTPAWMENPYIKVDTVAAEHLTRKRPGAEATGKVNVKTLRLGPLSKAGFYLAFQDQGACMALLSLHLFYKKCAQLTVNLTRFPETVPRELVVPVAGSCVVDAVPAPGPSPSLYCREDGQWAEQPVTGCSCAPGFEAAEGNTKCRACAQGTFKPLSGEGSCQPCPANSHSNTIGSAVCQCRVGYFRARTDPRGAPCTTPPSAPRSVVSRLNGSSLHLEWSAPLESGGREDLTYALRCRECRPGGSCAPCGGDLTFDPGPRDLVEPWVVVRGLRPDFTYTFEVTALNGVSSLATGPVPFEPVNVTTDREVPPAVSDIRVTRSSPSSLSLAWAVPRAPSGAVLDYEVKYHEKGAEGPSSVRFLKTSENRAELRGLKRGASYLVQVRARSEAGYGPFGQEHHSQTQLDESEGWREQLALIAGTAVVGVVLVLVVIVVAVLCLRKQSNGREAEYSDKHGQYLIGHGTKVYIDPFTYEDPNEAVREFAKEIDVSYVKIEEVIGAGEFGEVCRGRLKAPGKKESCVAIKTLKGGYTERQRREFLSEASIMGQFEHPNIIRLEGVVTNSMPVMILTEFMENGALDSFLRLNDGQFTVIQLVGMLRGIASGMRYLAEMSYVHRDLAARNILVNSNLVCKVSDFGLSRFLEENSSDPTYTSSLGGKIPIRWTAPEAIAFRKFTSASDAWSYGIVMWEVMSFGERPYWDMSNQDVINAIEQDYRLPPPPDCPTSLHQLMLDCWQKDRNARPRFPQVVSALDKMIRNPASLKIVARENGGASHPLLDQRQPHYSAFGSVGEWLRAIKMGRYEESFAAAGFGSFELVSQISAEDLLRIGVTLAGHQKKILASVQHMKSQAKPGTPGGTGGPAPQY
Chain of Mitogen-activated protein kinase 8 (Homo sapiens) (P45983 whole entry): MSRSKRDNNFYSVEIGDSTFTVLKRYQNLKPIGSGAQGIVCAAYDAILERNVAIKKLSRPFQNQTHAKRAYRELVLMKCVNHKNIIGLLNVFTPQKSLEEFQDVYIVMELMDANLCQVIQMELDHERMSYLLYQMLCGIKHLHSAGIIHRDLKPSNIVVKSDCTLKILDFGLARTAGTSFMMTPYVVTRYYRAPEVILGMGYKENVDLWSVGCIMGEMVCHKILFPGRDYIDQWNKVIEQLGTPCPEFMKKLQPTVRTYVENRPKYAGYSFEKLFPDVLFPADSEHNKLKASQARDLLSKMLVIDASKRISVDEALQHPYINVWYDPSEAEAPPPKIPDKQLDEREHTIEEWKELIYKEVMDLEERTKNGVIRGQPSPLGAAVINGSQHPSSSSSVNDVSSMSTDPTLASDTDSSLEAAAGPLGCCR
Chain of Dual specificity mitogen-activated protein kinase kinase 3 (Homo sapiens) (P46734 whole entry): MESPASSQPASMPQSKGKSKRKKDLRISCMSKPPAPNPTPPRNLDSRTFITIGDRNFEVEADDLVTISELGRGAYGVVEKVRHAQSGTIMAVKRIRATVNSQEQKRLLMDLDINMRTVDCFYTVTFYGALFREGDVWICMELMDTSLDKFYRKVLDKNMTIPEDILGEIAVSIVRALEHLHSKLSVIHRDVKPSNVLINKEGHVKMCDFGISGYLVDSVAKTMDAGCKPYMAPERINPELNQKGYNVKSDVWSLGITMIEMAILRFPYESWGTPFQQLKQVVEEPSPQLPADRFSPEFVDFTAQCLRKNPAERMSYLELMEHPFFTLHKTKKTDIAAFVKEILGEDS

Row | SMILES | IC50 [1] | inhibition [2] [%] | inhibition [3] [%] | residual activity [4] [%] | residual activity [5] [%] | residual activity [6] [%] | residual activity [7] [%] | residual activity [8] [%] | residual activity [9] [%] | residual activity [10] [%] | residual activity [11] [%] | residual activity [12] [%] | residual activity [13] [%] | residual activity [14] [%] | residual activity [15] [%] | residual activity [16] [%] | residual activity [17] [%] | residual activity [18] [%] | residual activity [19] [%] | residual activity [20] [%] | also measured
1 | CNC(=O)Nc1ccc2c(c1)CC[C@@]21OC(=O)N(CC(=O)N(Cc2ccc(F)cc2)[C@@H](C)C(F)(F)F)C1=O [A-485] | 0.381 µM (active) | 12 | 2 | 100 | 88 | 74 | 86 | 69 | 100 | 67 | 73 | 96 | 80 | 100 | 91 | 76 | 89 | 99 | 65 | 67 | residual activity [21]: 100%; residual activity [22]: 97%; residual activity [23]: 91%; residual activity [24]: 77%; residual activity [25]: 71%; residual activity [26]: 81%; residual activity [27]: 100%; residual activity [28]: 83%; residual activity [29]: 94%; residual activity [30]: 100%; residual activity [31]: 93%; residual activity [32]: 92%; residual activity [33]: 76%; residual activity [34]: 90%; residual activity [35]: 70%; residual activity [36]: 91%; residual activity [37]: 88%; inhibition [38]: 6.87%; inhibition [39]: 34.6%
2 | CNC(=O)Nc1ccc2c(c1)[C@@]1(CC2)OC(=O)N(CC(=O)N(Cc2ccc(F)cc2)[C@@H](C)C(F)(F)F)C1=O [A-486] | > 10 µM (not active) | 4 | -7 | 88 | 84 | 88 | 91 | 82 | 90 | 85 | 73 | 94 | 91 | 98 | 91 | 81 | 100 | 92 | 71 | 70 | residual activity [21]: 81%; residual activity [22]: 89%; residual activity [23]: 87%; residual activity [24]: 90%; residual activity [25]: 87%; residual activity [26]: 93%; residual activity [27]: 95%; residual activity [28]: 93%; residual activity [29]: 97%; residual activity [30]: 99%; residual activity [31]: 87%; residual activity [32]: 100%; residual activity [33]: 87%; residual activity [34]: 100%; residual activity [35]: 82%; residual activity [36]: 92%; residual activity [37]: 100%; inhibition [38]: 4.17%; inhibition [39]: 26.6%
